# Experimental data: PubChem BioAssay AID1963870 (Molecular Pharmacology Branch, DTP, NCI, 2024)
# Test system: 292921-168-R-J2-PDC KRAS tumor spheroid viability
# Assay: Anticancer human tumor 292921-168-R-J2-PDC patient-derived pancreatic carcinoma cell line growth inhibition [KRAS2]
# Conditions: spheroids with HUVEC and MSC; for viability, T/C: stronger effect = lower value
# Procedure, shortened: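 KRAS-mutant tumor cells were grown as spheroids with HUVEC endothelial cells and human MSCs as stroma. Targeted agents were tested alone and with KRAS pathway inhibitors. Doses started at or near clinical Cmax, or 10 microM, descending half-log.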
# [1] = curve of first compound, second compound 0.1 µM
# [2] = curve of first compound, second compound 0.316 µM
# [3] = curve of first compound, second compound 1 µM
# [4] = curve of first compound, second compound 3.16 µM
# [5] = second compound 0.1 µM, first compound 0.0316 µM
# [6] = second compound 0.1 µM, first compound 0.1 µM
# [7] = second compound 0.1 µM, first compound 0.316 µM
# [8] = second compound 0.1 µM, first compound 1 µM
# [9] = second compound 0.1 µM, first compound 3.16 µM
# [10] = second compound 0.1 µM, first compound 10 µM
# [11] = second compound 0.316 µM, first compound 0.0316 µM
# [12] = second compound 0.316 µM, first compound 0.1 µM
# [13] = second compound 0.316 µM, first compound 0.316 µM
# [14] = second compound 0.316 µM, first compound 1 µM
# [15] = second compound 0.316 µM, first compound 3.16 µM
# [16] = second compound 0.316 µM, first compound 10 µM
# [17] = second compound 1 µM, first compound 0.0316 µM
# [18] = second compound 1 µM, first compound 0.1 µM
# [19] = second compound 1 µM, first compound 0.316 µM
# [20] = second compound 1 µM, first compound 1 µM
# [21] = second compound 1 µM, first compound 3.16 µM
# [22] = second compound 1 µM, first compound 10 µM
# [23] = second compound 3.16 µM, first compound 0.0316 µM
# [24] = second compound 3.16 µM, first compound 0.1 µM
# [25] = second compound 3.16 µM, first compound 0.316 µM
# [26] = second compound 3.16 µM, first compound 1 µM
# [27] = second compound 3.16 µM, first compound 3.16 µM
# [28] = second compound 3.16 µM, first compound 10 µM
# [29] = curve of first compound, second compound 10 µM
# [30] = second compound 0.1 µM, first compound 0.0001 µM
# [31] = second compound 0.1 µM, first compound 0.000316 µM
# [32] = second compound 0.1 µM, first compound 0.001 µM
# [33] = second compound 0.1 µM, first compound 0.00316 µM
# [34] = second compound 0.1 µM, first compound 0.01 µM
# [35] = second compound 0.316 µM, first compound 0.0001 µM
# [36] = second compound 0.316 µM, first compound 0.000316 µM
# [37] = second compound 0.316 µM, first compound 0.001 µM
# [38] = second compound 0.316 µM, first compound 0.00316 µM
# [39] = second compound 0.316 µM, first compound 0.01 µM
# [40] = second compound 1 µM, first compound 0.0001 µM
# [41] = second compound 1 µM, first compound 0.000316 µM
# [42] = second compound 1 µM, first compound 0.001 µM
# [43] = second compound 1 µM, first compound 0.00316 µM
# [44] = second compound 1 µM, first compound 0.01 µM
# [45] = second compound 3.16 µM, first compound 0.0001 µM
# [46] = second compound 3.16 µM, first compound 0.000316 µM
# [47] = second compound 3.16 µM, first compound 0.001 µM
# [48] = second compound 3.16 µM, first compound 0.00316 µM
# [49] = second compound 3.16 µM, first compound 0.01 µM
# [50] = second compound 10 µM, first compound 0.0001 µM
# [51] = second compound 10 µM, first compound 0.000316 µM
# [52] = second compound 10 µM, first compound 0.001 µM
# [53] = second compound 10 µM, first compound 0.00316 µM
# [54] = second compound 10 µM, first compound 0.01 µM
# [55] = second compound 10 µM, first compound 0.0316 µM
# 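Note: drug exposure lasted seven days after spheroids formed for three days.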
# 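Throughout, for viability, T/C: percent of DMSO vehicle control viability which is 100%.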
compound,measurement,setting,value
Cn1nccc1Nc1nccc(-c2cc3c(s2)C(C)(C)N(CCN2CCOCC2)C3=O)n1,"viability, T/C",compound 0.0316 µM,80.7% [middle of 5 runs]
same,"viability, T/C",compound 0.1 µM,45.7% [middle of 5 runs]
same,"viability, T/C",compound 0.316 µM,21.1% [middle of 5 runs]
same,"viability, T/C",compound 1 µM,13.4% [middle of 4 runs]
same,"viability, T/C",compound 3.16 µM,11.2% [middle of 4 runs]
same,"viability, T/C",compound 10 µM,11.7% [middle of 5 runs]
same,IC50,curve of compound,86 nM [middle of 5 runs]
Cn1nccc1Nc1nccc(-c2cc3c(s2)C(C)(C)N(CCN2CCOCC2)C3=O)n1 + C=CC(=O)N1CCN(c2nc(OCC3CCCN3C)nc3c2CCN(c2cccc4cccc(C)c24)C3)CC1CC#N,IC50,"curve of first compound, second compound 0.0316 µM",93.1 nM
same,IC50,[1],77.8 nM
same,IC50,[2],59 nM
same,IC50,[3],< 31.6 nM
same,IC50,[4],< 31.6 nM
same,"viability, T/C","second compound 0.0316 µM, first compound 0.0316 µM",86.7%
same,"viability, T/C","second compound 0.0316 µM, first compound 0.1 µM",47.5%
same,"viability, T/C","second compound 0.0316 µM, first compound 0.316 µM",20.6%
same,"viability, T/C","second compound 0.0316 µM, first compound 1 µM",13%
same,"viability, T/C","second compound 0.0316 µM, first compound 3.16 µM",11.6%
same,"viability, T/C","second compound 0.0316 µM, first compound 10 µM",11.9%
same,"viability, T/C",[5],80.2%
same,"viability, T/C",[6],41.4%
same,"viability, T/C",[7],21.6%
same,"viability, T/C",[8],12.5%
same,"viability, T/C",[9],11.1%
same,"viability, T/C",[10],11.6%
same,"viability, T/C",[11],63.5%
same,"viability, T/C",[12],38.6%
same,"viability, T/C",[13],16.2%
same,"viability, T/C",[14],12.2%
same,"viability, T/C",[15],9.88%
same,"viability, T/C",[16],11.9%
same,"viability, T/C",[17],30.9%
same,"viability, T/C",[18],18.4%
same,"viability, T/C",[19],8.49%
same,"viability, T/C",[20],8.54%
same,"viability, T/C",[21],7.25%
same,"viability, T/C",[22],8.46%
same,"viability, T/C",[23],0.45%
same,"viability, T/C",[24],0.11%
same,"viability, T/C",[25],0.11%
same,"viability, T/C",[26],0.1%
same,"viability, T/C",[27],0.1%
same,"viability, T/C",[28],0.16%
CC(=O)Nc1cccc(-n2c(=O)n(C3CC3)c(=O)c3c(Nc4ccc(I)cc4F)n(C)c(=O)c(C)c32)c1 + CC1OCC2(CCN(c3cnc(Sc4ccnc(N)c4Cl)c(N)n3)CC2)C1N,IC50,[1],< 0.1 nM
same,IC50,[2],< 0.1 nM
same,IC50,[3],< 0.1 nM
same,IC50,[4],< 0.1 nM
same,IC50,[29],< 0.1 nM
same,"viability, T/C",[30],48.8%
same,"viability, T/C",[31],28.9%
same,"viability, T/C",[32],18.2%
same,"viability, T/C",[33],14.6%
same,"viability, T/C",[34],10.5%
same,"viability, T/C",[5],8.15%
same,"viability, T/C",[35],35.4%
same,"viability, T/C",[36],27.8%
same,"viability, T/C",[37],15.6%
same,"viability, T/C",[38],11.9%
same,"viability, T/C",[39],9.03%
same,"viability, T/C",[11],7.3%
same,"viability, T/C",[40],30.1%
same,"viability, T/C",[41],17.7%
same,"viability, T/C",[42],13.1%
same,"viability, T/C",[43],9.44%
same,"viability, T/C",[44],7.15%
same,"viability, T/C",[17],6.35%
same,"viability, T/C",[45],22.9%
same,"viability, T/C",[46],15.7%
same,"viability, T/C",[47],11.9%
same,"viability, T/C",[48],8.12%
same,"viability, T/C",[49],7.15%
same,"viability, T/C",[23],5.35%
same,"viability, T/C",[50],18.3%
same,"viability, T/C",[51],14.1%
same,"viability, T/C",[52],9.59%
same,"viability, T/C",[53],7.02%
same,"viability, T/C",[54],5.62%
same,"viability, T/C",[55],4.49%
CC(=O)Nc1cccc(-n2c(=O)n(C3CC3)c(=O)c3c(Nc4ccc(I)cc4F)n(C)c(=O)c(C)c32)c1 + C=CC(=O)N1CCN(c2nc(=O)n(-c3c(C)ccnc3C(C)C)c3nc(-c4c(O)cccc4F)c(F)cc23)C(C)C1,IC50,[1],0.34 nM
same,IC50,[2],0.468 nM
same,IC50,[3],0.395 nM
same,IC50,[4],0.235 nM
same,IC50,[29],< 0.1 nM
same,"viability, T/C",[30],90%
same,"viability, T/C",[31],51.6%
same,"viability, T/C",[32],27.4%
same,"viability, T/C",[33],18.7%
same,"viability, T/C",[34],12.8%
same,"viability, T/C",[5],7.68%
same,"viability, T/C",[35],92%
same,"viability, T/C",[36],60.1%
same,"viability, T/C",[37],30.3%
same,"viability, T/C",[38],18.9%
same,"viability, T/C",[39],11.9%
same,"viability, T/C",[11],7.86%
same,"viability, T/C",[40],86.9%
same,"viability, T/C",[41],54.4%
same,"viability, T/C",[42],31.9%
same,"viability, T/C",[43],19.6%
same,"viability, T/C",[44],12.1%
same,"viability, T/C",[17],8.24%
same,"viability, T/C",[45],62.1%
same,"viability, T/C",[46],46.4%
same,"viability, T/C",[47],26.8%
same,"viability, T/C",[48],17.5%
same,"viability, T/C",[49],11.5%
same,"viability, T/C",[23],9.06%
same,"viability, T/C",[50],23%
same,"viability, T/C",[51],19.9%
same,"viability, T/C",[52],10.9%
same,"viability, T/C",[53],11.7%
same,"viability, T/C",[54],9.79%
same,"viability, T/C",[55],9.65%
COc1cc2nccc(Oc3ccc(NC(=O)C4(C(=O)Nc5ccc(F)cc5)CC4)cc3)c2cc1OC + COc1cc2nc(C)nc(NC(C)c3cc(N)cc(C(F)(F)F)c3)c2cc1OC1CCOC1,IC50,[1],2310 nM
same,IC50,[2],2440 nM
same,IC50,[3],1590 nM
same,IC50,[4],996 nM
same,IC50,[29],< 31.6 nM
same,"viability, T/C",[5],102%
same,"viability, T/C",[6],110%
same,"viability, T/C",[7],101%
same,"viability, T/C",[8],77.8%
same,"viability, T/C",[9],40%
same,"viability, T/C",[10],21.1%
same,"viability, T/C",[11],99.4%
same,"viability, T/C",[12],99.4%
same,"viability, T/C",[13],92%
same,"viability, T/C",[14],75%
same,"viability, T/C",[15],42.5%
same,"viability, T/C",[16],23.7%
same,"viability, T/C",[17],102%
same,"viability, T/C",[18],86.9%
same,"viability, T/C",[19],88.6%
same,"viability, T/C",[20],60.4%
same,"viability, T/C",[21],33.2%
same,"viability, T/C",[22],17.6%
same,"viability, T/C",[23],73.6%
same,"viability, T/C",[24],72.9%
same,"viability, T/C",[25],64.6%
same,"viability, T/C",[26],51.8%
same,"viability, T/C",[27],22.2%
same,"viability, T/C",[28],11.8%
same,"viability, T/C",[55],45.1%
same,"viability, T/C","second compound 10 µM, first compound 0.1 µM",31.1%
same,"viability, T/C","second compound 10 µM, first compound 0.316 µM",36.6%
same,"viability, T/C","second compound 10 µM, first compound 1 µM",31.9%
same,"viability, T/C","second compound 10 µM, first compound 3.16 µM",15.8%
same,"viability, T/C","second compound 10 µM, first compound 10 µM",0.83%
